Measured values: paper PMC6173509, “C-3- and C-4-Substituted Bicyclic Coumarin Sulfamates as Potent Steroid Sulfatase Inhibitors” (ACS Omega, 2018)
pIC50: −log10 of the molar value.

Experiments:
steroid sulfatase (STS) [1] = target: T1, steroid sulfatase (STS) (Homo sapiens, UniProt P08842); parameters: a placental microsomal preparation from a sulfatase-positive human placenta from a normal term pregnancy; from tissue; host or cells: human placenta (microsomal preparation); conditions: cited from earlier work; for % Inhibition of STS Activity in Placental Microsomes at 0.1 μM: 0.1 μM inhibitor; for % Inhibition of STS Activity in Placental Microsomes at 1 μM: 1 μM inhibitor; for % Inhibition of STS Activity in Placental Microsomes at 10 μM: 10 μM inhibitor
T1 sequence (P08842 22-583): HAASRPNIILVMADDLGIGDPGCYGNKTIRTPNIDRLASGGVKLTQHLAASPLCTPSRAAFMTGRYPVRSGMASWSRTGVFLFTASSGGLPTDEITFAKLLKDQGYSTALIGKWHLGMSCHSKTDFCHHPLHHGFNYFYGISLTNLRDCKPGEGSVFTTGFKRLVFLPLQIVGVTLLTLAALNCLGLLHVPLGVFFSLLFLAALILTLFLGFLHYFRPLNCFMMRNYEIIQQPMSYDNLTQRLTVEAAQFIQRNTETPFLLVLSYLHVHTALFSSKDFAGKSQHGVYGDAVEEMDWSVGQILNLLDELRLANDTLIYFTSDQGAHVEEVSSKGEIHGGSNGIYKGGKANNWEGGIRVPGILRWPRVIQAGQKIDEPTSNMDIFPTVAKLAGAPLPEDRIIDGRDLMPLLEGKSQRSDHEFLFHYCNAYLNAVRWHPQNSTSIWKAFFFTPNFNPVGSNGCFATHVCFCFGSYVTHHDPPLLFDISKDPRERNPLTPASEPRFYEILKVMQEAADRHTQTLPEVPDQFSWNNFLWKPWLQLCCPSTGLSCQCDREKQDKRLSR

steroid sulfatase (STS) [2] = target: T1, steroid sulfatase (STS); parameters: endogenous in cells; host or cells: MCF-7 breast cancer cells; conditions: cited from earlier work
[3] = rodent; cited from earlier work
[4] = parameters: method as in PMID 18288656, PMID 18288656, PMID 24604234; conditions: rats; ref 12a, 12b, 14; cited from earlier work
steroid sulfatase (STS) [5] = target: T1, steroid sulfatase (STS); assay: STS inhibition in placental microsomes; type: biochemical; parameters: a placental microsomal preparation from a sulfatase-positive human placenta from a normal term pregnancy; from tissue; host or cells: human placenta (microsomal preparation); conditions: 20 μM E1S; for inhibition at 0.01 µM: 0.01 μM inhibitor; for inhibition at 0.1 µM: 0.1 μM inhibitor; for inhibition at 1 µM: 1 μM inhibitor; for inhibition at 10 µM: 10 μM inhibitor
steroid sulfatase (STS) [6] = target: T1, steroid sulfatase (STS); assay: STS inhibition in intact MCF-7 breast cancer cells; type: cell-based; parameters: endogenous in cells; host or cells: MCF-7 breast cancer cells; conditions: for inhibition at 0.01 µM: MCF7, read-out: % Inhibition of STS Activity in Intact MCF-7 Breast Cancer Cells at 0.01 μM; for inhibition at 0.1 µM: MCF7, read-out: % Inhibition of STS Activity in Intact MCF-7 Breast Cancer Cells at 0.1 μM; for inhibition at 1 µM: MCF7, read-out: % Inhibition of STS Activity in Intact MCF-7 Breast Cancer Cells at 1 μM; for inhibition at 10 µM: MCF7, read-out: % Inhibition of STS Activity in Intact MCF-7 Breast Cancer Cells at 10 μM; for pIC50: 3 nM E1S

SMILES | % Inhibition of STS Activity in Placental Microsomes at 0.1 μM (steroid sulfatase (STS) [1]) [%] | % Inhibition of STS Activity in Placental Microsomes at 1 μM (steroid sulfatase (STS) [1]) [%] | % Inhibition of STS Activity in Placental Microsomes at 10 μM (steroid sulfatase (STS) [1]) [%] | % Inhibition of STS Activity in Intact MCF-7 Breast Cancer Cells at 0.01 μM (steroid sulfatase (STS) [2]; 0.01 μM inhibitor) [%] | % Inhibition of STS Activity in Intact MCF-7 Breast Cancer Cells at 0.1 μM (steroid sulfatase (STS) [2]; 0.1 μM inhibitor) [%] | estrogenic activity [3] | estrogenicity [4] | inhibition at 0.01 µM (steroid sulfatase (STS) [5]) [%] | inhibition at 0.1 µM (steroid sulfatase (STS) [5]) [%] | inhibition at 1 µM (steroid sulfatase (STS) [5]) [%] | inhibition at 0.01 µM (steroid sulfatase (STS) [6]) [%] | inhibition at 0.1 µM (steroid sulfatase (STS) [6]) [%] | inhibition at 1 µM (steroid sulfatase (STS) [6]) [%] | inhibition at 10 µM (steroid sulfatase (STS) [6]) [%] | inhibition at 10 µM (steroid sulfatase (STS) [5]) [%] | pIC50 (steroid sulfatase (STS) [5]) | pIC50 (steroid sulfatase (STS) [6])
CCc1cc(=O)oc2cc(OS(N)(=O)=O)ccc12 [compound 4] | 35 | 88 | >99 |  |  |  |  |  |  |  |  |  |  |  |  |  | 
CCCc1cc(=O)oc2cc(OS(N)(=O)=O)ccc12 [compound 5] | 42 | 94 | 96 |  |  |  |  |  |  |  |  |  |  |  |  |  | 
Cc1cc(=O)oc2cc(OS(N)(=O)=O)ccc12 [compound 3, 4-methylcoumarin-7-O-sulfamate] | <10 | 63 |  | <10 | 43 | no rodent estrogenic activity |  |  |  |  |  |  |  |  |  |  | 
CCCc1c(C)c2ccc(OS(N)(=O)=O)cc2oc1=O [compound 8] | 83 | 97 | >99 |  |  |  |  |  |  |  |  |  |  |  |  |  | 
CCc1c(C)c2ccc(OS(N)(=O)=O)cc2oc1=O [compound 7] | 57 | 96 | >99 |  |  |  |  |  |  |  |  |  |  |  |  |  | 
C[C@]12CC[C@@H]3c4ccc(OS(N)(=O)=O)cc4CC[C@H]3[C@@H]1CCC2=O [compound 1, estrone-3-O-sulfamate] |  |  |  |  |  |  | highly estrogenic |  |  |  |  |  |  |  |  |  | 
Cc1c(Cc2ccccc2)c(=O)oc2cc(OS(N)(=O)=O)ccc12 [compound 41, 3-Benzyl-4-methylcoumarin-7-O-sulfamate] |  |  |  |  |  |  |  | 53 | 94 | 99 | 85 | 91 | 94 | 97 |  |  | 
NS(=O)(=O)Oc1ccc2c(CCc3ccccc3)cc(=O)oc2c1 [compound 24, 4-(2-Phenylethyl)coumarin-7-O-sulfamate] |  |  |  |  |  |  |  | 8 | 53 | 93 | 39 | 84 | 95 | 98 | 98 | 7.09 | 7.74
NS(=O)(=O)Oc1ccc2c(-c3ccccc3)cc(=O)oc2c1 [compound 22, 4-Phenylcoumarin-7-O-sulfamate] |  |  |  |  |  |  |  |  |  |  |  | 36 | 79 | 87 |  | 6.70 | 
CCCCCCCc1cc(=O)oc2cc(OS(N)(=O)=O)ccc12 [compound 12, 4-Heptylcoumarin-7-O-sulfamate] |  |  |  |  |  |  |  | 8 | 64 | 97 |  | 93 | 95 | 99 | 99 | 7.05 | 
CCCCCCCCCCc1cc(=O)oc2cc(OS(N)(=O)=O)ccc12 [compound 15, 4-Decylcoumarin-7-O-sulfamate] |  |  |  |  |  |  |  | 17 | 74 | 96 | 86 | 95 | 98 | 100 | 99 | 7.22 | 
CCCCc1cc(=O)oc2cc(OS(N)(=O)=O)ccc12 [compound 9, 4-Butylcoumarin-7-O-sulfamate] |  |  |  |  |  |  |  | 10 | 49 | 91 |  | 85 | 91 | 93 | 98 | 6.99 | 
NS(=O)(=O)Oc1ccc2c(CCl)cc(=O)oc2c1 [compound 21, 4-Chloromethylcoumarin-7-O-sulfamate] |  |  |  |  |  |  |  | 10 | 19 | 59 | 6 | 33 | 82 | 92 | 94 | 6.22 | 6.66
NS(=O)(=O)Oc1ccc2c(C3CCCCC3)cc(=O)oc2c1 [compound 26, 4-Cyclohexylcoumarin-7-O-sulfamate] |  |  |  |  |  |  |  | 9 | 69 | 94 | 37 | 72 | 80 | 93 | 99 | 7.38 | 7.62
